Values of other authors in US20060134172A1, “Agents which regulate, inhibit, or modulate the activity and/or expression of lysyl oxidase (LOX) and LOX-like proteases as a unique means to both lower intraocular pressure and treat glaucomatous retinopathies/optic neuropathies” (Alcon, Inc., priority 2004, published 2006).

Molecular target: T1, lysyl oxidase (Homo sapiens, UniProt P28300)
T1 sequence (P28300 169-417): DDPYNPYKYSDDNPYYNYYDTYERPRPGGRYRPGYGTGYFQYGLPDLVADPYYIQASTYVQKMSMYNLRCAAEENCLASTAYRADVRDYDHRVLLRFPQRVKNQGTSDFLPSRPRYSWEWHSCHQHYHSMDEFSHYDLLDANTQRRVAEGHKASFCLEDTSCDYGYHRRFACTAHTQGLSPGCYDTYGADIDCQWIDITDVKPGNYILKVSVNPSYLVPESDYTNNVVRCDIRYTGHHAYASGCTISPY
Conditions: known from U.S. Pat. No. 4,444,787

N#CCCN [β-aminopropionitrile (BAPN), β-aminopropionitrile]
in vitro inhibition of lysyl oxidase: inhibition
